Experimental findings from patent US20220185802A1, “BENZOXAZINE MONOMERS AND POLYMERIC COATINGS” (LUXEMBOURG INSTITUTE OF SCIENCE AND TECHNOLOGY (LIST), priority 2019, published 2022) are described below.

In one assay the test system is NF-κB activation. In words: Inflammation inhibitory activity, NF-κB-inducible SEAP reporter in THP-1 cells with TNFα as inducer. It counts as cell-based, human. The following applies: samples coated with polymer formed from the monomer in combination with P-e, film about 120 μm. From the text:
(§1) In human, inflammation can arise through the activation of nuclear factor-kappaB (NF-κB), a pivotal transcription factor in chronic inflammatory diseases, inducing the expression of numerous inflammation related-genes such as those for tumor necrosis factor α (TNFα) and cytokines such as IL-1β, IL-10, and IL-6 or IL-8 (Medzhitov R., Nature, 2008, 454, 428-435). In the present invention, an inflammation-relevant human cell line, i.e. the monocytes THP-1 cells, are used to evaluate the potential of the coatings to reduce the inflammation. Their cytotoxicity towards are first evaluated using the resazurin reduction test (O'Brien J. et al., Eur. J. Biochem., 2000, 267, 5421-5426.) General anti-inflammatory properties are then determined using THP-1 cells transfected with a reporter plasmid expressing the secreted alkaline phosphatase (SEAP) gene under the control of an NF-κB-inducible promoter. TNFα are used as an inflammation inducer and the data are expressed as percentage inhibition of NF-κB activation. In addition, the effects of the most promising monomers is further evaluated on inflammation-related genes by real time qPCR using THP-1 cells differentiated into macrophages (Andre C. M. et al., J. Agric. Food. Chem, 2013, 61, 2773-2779) and IL-1β, IL-10, IL-6, and COX-2 as markers (Kaulmann A. et al., Mol. Nutr. Food Res., 2016, 60, 992-1005).

The subject of another assay is THP-1 cells. In words: Pro-inflammatory activity of coated samples (FIG. 20). The format is cell-based, human. The following applies: samples coated with film derived from the compound (monomers in combination with P-e; P-e alone).
Excerpt: as §1

SMILES strings stand for the structures.

Regarding `CC=Cc1cc2c(c(OC)c1)OCN(Cc1ccco1)C2` [Monomer 12], the “inhibition of the inflammation” value with NF-κB activation (TNFα as inducer) is on record as approximately 20%. Moreover, in the assay with NF-κB activation (in comparison with P-e or 13), the anti-inflammatory effect result is “strong anti-inflammatory effect”. For the same molecule, the pro-inflammatory properties result in the assay on THP-1 cells is “only the sample coated with the film derived from compound 13 shows a trend”.
`c1ccc2c(c1)CN(CCN1COc3ccccc3C1)CO2` [P-e, reference compound]: the pro-inflammatory properties result in the assay on THP-1 cells is recorded as “only the sample coated with the film derived from compound 13 shows a trend”.
